# Peptide text beside a SMILES is read from it.
# Assay: Oil solubilization of Peptide A or B using citral
# Format: physicochemical
# Details: 2 mg peptide, 0.1 mL citral, 0.1 mL ethanol, 80° C. (Peptide A 3 hours, Peptide B 4 hours); 50 μL ethanol solution + 150 μL IPM
# Method: The oil solubilization experiment of Peptide A is as follows.
# Preparation conditions under heating at 80° C. are as follows.
# Preparation conditions under stirring at room temperature are as follows. To 1 mL of a screw-top sample tube were added 2 mg of Peptide B, 0.1 mL of citral and 0.1 mL of ethanol, and the mixture was stirred at room temperature for 22 hours to obtain an ethanol solution.
row,Solution state in IPM,SMILES
1,pale yellow peptide IPM solution,CSCC[C@H](NC(=O)[C@H](CC(C)C)NC(=O)[C@@H](NC(=O)[C@H](Cc1ccccc1)NC(=O)CNC(=O)[C@@H](NC(=O)[C@H](CC(C)C)NC(=O)[C@H](CCCCN)NC(=O)[C@H](C)NC(=O)[C@H](Cc1ccccc1)NC(=O)[C@@H](N)CCC(N)=O)[C@@H](C)O)[C@@H](C)O)C(=O)NCC(=O)O [Peptide A] (H-QFAKLTGFTLMG-OH; N-terminus and C-terminus assumed)
2,pale yellow peptide IPM solution,CSCC[C@H](NC(=O)[C@@H](N)CO)C(=O)N[C@@H](CCCCN)C(=O)N[C@H](C(=O)N[C@H](C(=O)N[C@H](C(=O)N[C@@H](C)C(=O)N[C@@H](Cc1ccccc1)C(=O)N[C@@H](CC(N)=O)C(=O)N[C@@H](CCC(N)=O)C(=O)N[C@@H](Cc1ccccc1)C(=O)NCC(=O)N1CCC[C@H]1C(=O)O)C(C)C)[C@@H](C)O)C(C)C [Peptide B] (H-SMKVTVAFNQFGP-OH; N-terminus and C-terminus assumed)

# Same assay, conditions: 2 mg peptide, 0.1 mL citral, 0.1 mL ethanol, stirred at room temperature 22 hours
row,State of ethanol solution,SMILES
1,yellow gel-like substance,CSCC[C@H](NC(=O)[C@@H](N)CO)C(=O)N[C@@H](CCCCN)C(=O)N[C@H](C(=O)N[C@H](C(=O)N[C@H](C(=O)N[C@@H](C)C(=O)N[C@@H](Cc1ccccc1)C(=O)N[C@@H](CC(N)=O)C(=O)N[C@@H](CCC(N)=O)C(=O)N[C@@H](Cc1ccccc1)C(=O)NCC(=O)N1CCC[C@H]1C(=O)O)C(C)C)[C@@H](C)O)C(C)C [Peptide B] (H-SMKVTVAFNQFGP-OH; N-terminus and C-terminus assumed)

# Assay: not given
# Details: not given
# Method: Solubilization of the complex with citronellal or citral in ethanol was examined while keeping the amino acid as crystal. The amino acids are different in the crystalline state in the commercial products depending on the kind thereof, so that there were fear that the results might cause fluctuation. Thus, an operation for enlarging the surface in contact with the liquid was added by making the difference due to crystals small as well as making the surface area as much as possible. Specifically, the crystals of the amino acids were ground in a mortar and then sieved through a 100 μm sieve to provide powders, which were used in the present test.
# The amount and heating time of citronellal or citral necessary for solubilizing the obtained complex in ethanol, and the dispersed state of the obtained complex in ethanol was confirmed.
SMILES,Amount of citral necessary for solubilizing in ethanol,Heating time necessary for solubilizing in ethanol,Amount of citronellal necessary for solubilizing in ethanol
"CC[C@H](C)[C@H](N)C(=O)O [Isoleucine, L(+)-isoleucine]",700 mg,0.25 h,–
"NCCCC[C@H](N)C(=O)O [Lysine, L-(+) lysine]",–,0.5 h,700 mg
"CC(C)[C@H](N)C(=O)O [Valine, L-valine]",700 mg,3 h,–

# Next, values leading:
Amount of citral necessary for solubilizing in ethanol,Heating time necessary for solubilizing in ethanol,Amount of citronellal necessary for solubilizing in ethanol,SMILES
700 mg,24 h,–,"NC(=O)CC[C@H](N)C(=O)O [Glutamine, L(+)-glutamine]"
–,17.5 h,700 mg,"N[C@@H](Cc1c[nH]cn1)C(=O)O [Histidine, L-histidine]"
700 mg,5 h,–,"C[C@H](N)C(=O)O [L-Alanine, L-alanine]"
–,0.33 h,700 mg,N[C@@H](CS)C(=O)O [L-cysteine]
–,24 h,700 mg,"N[C@@H](Cc1c[nH]c2ccccc12)C(=O)O [Tryptophan, L-tryptophan]"

# From patent US20190030166A1, “PERCUTANEOUSLY ABSORBABLE COMPOSITION CONTROLLED IN RELEASE OF WATER-SOLUBLE EFFECTIVE INGREDIENT” (NISSAN CHEMICAL CORPORATION, priority 2016, published 2019)
